Experimental data: patent US8691865B2 (AbbVie Inc., priority 2008, dated 2014)

Each compound was assayed against human Cav2.2 (Homo sapiens, UniProt Q00975) (assay: Assessment of calcium channel activity using FLIPR (Ca2+ influx in IMR32 cells)). Conditions: not given.
Chain of human Cav2.2 (Q00975 whole entry): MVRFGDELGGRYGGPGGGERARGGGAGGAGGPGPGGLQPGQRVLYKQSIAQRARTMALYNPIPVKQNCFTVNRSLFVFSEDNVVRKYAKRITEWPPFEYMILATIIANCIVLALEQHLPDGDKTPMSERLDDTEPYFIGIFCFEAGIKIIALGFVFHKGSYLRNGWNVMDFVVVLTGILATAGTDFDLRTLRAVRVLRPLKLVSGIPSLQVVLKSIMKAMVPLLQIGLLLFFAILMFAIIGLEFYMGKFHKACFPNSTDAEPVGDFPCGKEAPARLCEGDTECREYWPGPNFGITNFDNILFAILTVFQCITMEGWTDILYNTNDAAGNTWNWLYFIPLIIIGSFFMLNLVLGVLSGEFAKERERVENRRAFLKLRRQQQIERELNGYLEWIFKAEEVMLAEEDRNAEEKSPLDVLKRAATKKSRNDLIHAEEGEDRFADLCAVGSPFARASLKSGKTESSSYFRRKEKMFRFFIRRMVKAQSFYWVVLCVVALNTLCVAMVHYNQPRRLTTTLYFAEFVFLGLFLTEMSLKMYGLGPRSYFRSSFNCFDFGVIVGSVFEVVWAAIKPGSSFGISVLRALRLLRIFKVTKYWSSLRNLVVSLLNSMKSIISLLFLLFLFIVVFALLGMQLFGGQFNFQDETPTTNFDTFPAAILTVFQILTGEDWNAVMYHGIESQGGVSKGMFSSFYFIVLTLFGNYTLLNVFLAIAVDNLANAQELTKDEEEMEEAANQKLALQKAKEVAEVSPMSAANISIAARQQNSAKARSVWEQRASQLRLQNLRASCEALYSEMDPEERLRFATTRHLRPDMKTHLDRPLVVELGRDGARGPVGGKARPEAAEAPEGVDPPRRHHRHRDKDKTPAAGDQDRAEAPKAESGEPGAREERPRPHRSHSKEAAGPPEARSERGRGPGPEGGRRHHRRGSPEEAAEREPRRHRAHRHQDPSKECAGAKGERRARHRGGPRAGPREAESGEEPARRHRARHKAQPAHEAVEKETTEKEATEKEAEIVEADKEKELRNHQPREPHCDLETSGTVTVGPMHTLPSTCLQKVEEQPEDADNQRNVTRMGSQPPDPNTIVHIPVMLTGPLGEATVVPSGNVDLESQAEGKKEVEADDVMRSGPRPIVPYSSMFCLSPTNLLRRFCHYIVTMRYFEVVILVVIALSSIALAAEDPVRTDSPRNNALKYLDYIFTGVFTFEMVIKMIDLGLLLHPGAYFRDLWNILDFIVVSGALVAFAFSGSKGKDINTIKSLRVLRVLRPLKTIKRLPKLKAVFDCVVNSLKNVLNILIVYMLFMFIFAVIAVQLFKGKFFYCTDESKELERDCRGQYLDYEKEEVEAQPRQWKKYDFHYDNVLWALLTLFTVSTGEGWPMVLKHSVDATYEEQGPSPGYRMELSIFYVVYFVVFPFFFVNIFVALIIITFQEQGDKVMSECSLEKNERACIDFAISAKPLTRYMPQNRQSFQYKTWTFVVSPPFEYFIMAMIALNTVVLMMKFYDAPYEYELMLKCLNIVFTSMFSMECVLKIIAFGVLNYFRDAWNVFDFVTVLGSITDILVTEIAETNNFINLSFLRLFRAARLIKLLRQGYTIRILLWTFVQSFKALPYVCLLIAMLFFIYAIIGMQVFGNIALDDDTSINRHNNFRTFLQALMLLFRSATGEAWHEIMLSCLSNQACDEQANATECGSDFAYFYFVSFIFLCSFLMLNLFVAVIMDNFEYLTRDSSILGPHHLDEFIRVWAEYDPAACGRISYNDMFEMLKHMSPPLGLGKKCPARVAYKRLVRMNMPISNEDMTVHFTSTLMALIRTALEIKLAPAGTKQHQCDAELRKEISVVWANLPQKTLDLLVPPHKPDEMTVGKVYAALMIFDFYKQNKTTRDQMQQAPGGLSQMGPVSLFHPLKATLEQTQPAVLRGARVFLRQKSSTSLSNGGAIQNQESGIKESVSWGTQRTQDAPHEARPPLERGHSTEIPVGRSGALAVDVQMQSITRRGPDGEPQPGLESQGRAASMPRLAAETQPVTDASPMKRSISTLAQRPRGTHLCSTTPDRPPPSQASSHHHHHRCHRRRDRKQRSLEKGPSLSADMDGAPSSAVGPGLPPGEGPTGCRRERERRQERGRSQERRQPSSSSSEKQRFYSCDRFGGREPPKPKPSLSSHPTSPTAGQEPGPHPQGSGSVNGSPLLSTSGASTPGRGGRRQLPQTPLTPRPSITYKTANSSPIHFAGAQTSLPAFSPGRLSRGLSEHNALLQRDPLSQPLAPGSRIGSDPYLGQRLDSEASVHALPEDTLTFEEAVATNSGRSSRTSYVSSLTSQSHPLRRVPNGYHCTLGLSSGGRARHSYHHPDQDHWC
Chain of human Cav2.2 (P54289 25-956 partner limits assumed): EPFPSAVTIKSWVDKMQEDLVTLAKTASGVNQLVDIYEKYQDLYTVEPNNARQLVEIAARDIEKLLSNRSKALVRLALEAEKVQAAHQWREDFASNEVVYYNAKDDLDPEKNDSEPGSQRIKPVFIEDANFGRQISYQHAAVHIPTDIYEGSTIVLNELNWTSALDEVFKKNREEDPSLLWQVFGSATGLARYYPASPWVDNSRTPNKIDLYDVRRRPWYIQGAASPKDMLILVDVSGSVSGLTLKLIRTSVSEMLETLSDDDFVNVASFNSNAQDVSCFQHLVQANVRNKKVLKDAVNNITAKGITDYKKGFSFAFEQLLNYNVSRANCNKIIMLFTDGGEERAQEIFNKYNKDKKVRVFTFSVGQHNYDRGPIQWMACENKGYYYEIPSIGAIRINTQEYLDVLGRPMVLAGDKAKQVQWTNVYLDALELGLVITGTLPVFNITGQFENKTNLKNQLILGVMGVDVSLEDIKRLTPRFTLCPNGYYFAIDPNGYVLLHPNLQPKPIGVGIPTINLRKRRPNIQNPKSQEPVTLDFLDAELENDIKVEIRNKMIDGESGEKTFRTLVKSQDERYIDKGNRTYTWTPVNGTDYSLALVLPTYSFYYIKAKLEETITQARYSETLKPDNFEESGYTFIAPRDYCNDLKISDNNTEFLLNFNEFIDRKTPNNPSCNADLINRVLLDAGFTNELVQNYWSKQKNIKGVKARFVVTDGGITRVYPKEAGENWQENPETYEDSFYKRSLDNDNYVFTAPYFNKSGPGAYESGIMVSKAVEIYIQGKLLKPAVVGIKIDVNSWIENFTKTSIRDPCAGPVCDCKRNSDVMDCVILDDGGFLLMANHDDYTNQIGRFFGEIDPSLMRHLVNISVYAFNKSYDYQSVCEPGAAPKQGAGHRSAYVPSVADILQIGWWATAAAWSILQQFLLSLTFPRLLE
Chain of human Cav2.2 (P54289 957-1103 partner limits assumed): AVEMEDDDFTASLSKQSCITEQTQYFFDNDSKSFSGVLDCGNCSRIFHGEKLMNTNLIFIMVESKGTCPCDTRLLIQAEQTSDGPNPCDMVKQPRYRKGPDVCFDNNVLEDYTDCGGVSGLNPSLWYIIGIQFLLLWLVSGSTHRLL
Chain of human Cav2.2 (P54284 whole entry partner): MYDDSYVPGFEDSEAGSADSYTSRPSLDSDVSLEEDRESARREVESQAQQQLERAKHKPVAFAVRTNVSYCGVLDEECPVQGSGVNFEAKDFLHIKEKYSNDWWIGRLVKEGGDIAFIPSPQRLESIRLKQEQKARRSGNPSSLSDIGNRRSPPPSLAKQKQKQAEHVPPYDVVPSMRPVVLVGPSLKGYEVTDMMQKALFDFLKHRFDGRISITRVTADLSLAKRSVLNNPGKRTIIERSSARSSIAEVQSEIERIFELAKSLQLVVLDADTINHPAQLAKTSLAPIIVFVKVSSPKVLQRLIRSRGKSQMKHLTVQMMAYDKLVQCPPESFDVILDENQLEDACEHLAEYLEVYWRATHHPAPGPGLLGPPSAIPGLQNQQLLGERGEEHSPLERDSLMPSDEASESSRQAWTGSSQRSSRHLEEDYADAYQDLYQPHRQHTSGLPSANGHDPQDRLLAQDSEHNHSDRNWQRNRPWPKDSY
Format: cell-based
Method in brief: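 Human neuroblastoma IMR32 cells were seeded at 1−1.2×10^5 cells/well and cultured 48 h at 37 °C before FLIPR calcium influx measurement. Percent inhibition at each concentration was calculated against the no-inhibitor signal, and IC50 came from sigmoidal dose-response fits.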
With `CNCC(=O)N[C@H]1CC[C@@H]2CN(c3ccc(C(F)(F)F)cc3)C[C@@H]21` [Example 752, N^2-methyl-N-{(3aR,4S,6aS)-2-[4-(trifluoromethyl)phenyl]octahydrocyclopenta[c]pyrrol-4-yl}glycinamide] the IC50 was greater than 9.5 µM. In the case of `CC[C@H](C)[C@H](NC)C(=O)N[C@@H]1CC[C@H]2CN(Cc3ccccc3)C[C@H]21` [Example 354, N^1-[(3aS,4R,6aR)-2-benzyloctahydrocyclopenta[c]pyrrol-4-yl]-N^2-methyl-L-isoleucinamide], the IC50 is reported as greater than 30 µM. `CCC(CC)C(=O)N[C@H]1CC[C@H]2CN(Cc3cccc(C(F)(F)F)c3)C[C@H]21` (relative stereo) [Example 125, 2-ethyl-N-{(3aS*,4S*,6aR*)-2-[3-(trifluoromethyl)benzyl]octahydrocyclopenta[c]pyrrol-4-yl}butanamide] gave an IC50 of 2.07 µM. Work on `CN[C@@H](CC(C)C)C(=O)N[C@H]1CC[C@@H]2CN(c3cnccc3C(F)(F)F)C[C@@H]21` [Example 765, N^2-methyl-N-{(3aR,4S,6aS)-2-[4-(trifluoromethyl)pyridin-3-yl]octahydrocyclopenta[c]pyrrol-4-yl}-L-leucinamide] yielded an IC50 of 2.59 µM. `CC(C)C[C@H](N[C@H]1CC[C@@H]2CN(c3cccc(C(F)(F)F)n3)C[C@@H]21)C(N)=O` [Example 706, N^2-{(3aR,4S,6aS)-2-[6-(trifluoromethyl)pyridin-2-yl]octahydrocyclopenta[c]pyrrol-4-yl}-L-leucinamide] showed an IC50 of 1.12 µM. With `CCCC(C(=O)NC1CCC2CN(Cc3ccc(F)cc3)CC21)N(C)C(=O)OC(C)(C)C` (single isomer, unassigned) [Example 318] the IC50 was 1.07 µM. `O=C(N[C@@H]1CC[C@H]2CN(Cc3ccccc3)C[C@H]21)[C@@H]1CCCCN1` [Example 350, (2S)-N-[(3aS,4R,6aR)-2-benzyloctahydrocyclopenta[c]pyrrol-4-yl]piperidine-2-carboxamide] showed an IC50 greater than 30 µM. Work on `O=C(N[C@H]1CC[C@@H]2CN(c3ccnc(C(F)(F)F)c3)C[C@@H]21)[C@@H]1C[C@@H](F)CN1` [Example 638, (4R)-4-fluoro-N-{(3aR,4S,6aS)-2-[2-(trifluoromethyl)pyridin-4-yl]octahydrocyclopenta[c]pyrrol-4-yl}-L-prolinamide] yielded an IC50 greater than 30 µM. For `Cc1nc(CN[C@H]2CC[C@@H]3CN(c4cccc(C(F)(F)F)n4)C[C@@H]32)c[nH]1` [Example 676, (3aR,4S,6aS)-N-[(2-methyl-1H-imidazol-4-yl)methyl]-2-[6-(trifluoromethyl)pyridin-2-yl]octahydrocyclopenta[c]pyrrol-4-amine], the IC50 was 4.2 µM. `CN[C@@H](CC(C)(C)C)C(=O)N[C@H]1CC[C@@H]2CN(c3ccc(C(F)(F)F)cn3)C[C@@H]21` [Example 602, N^2,4-dimethyl-N-{(3aR,4S,6aS)-2-[5-(trifluoromethyl)pyridin-2-yl]octahydrocyclopenta[c]pyrrol-4-yl}-L-leucinamide] gave an IC50 of 1.88 µM. With `O=C(N[C@H]1CC[C@@H]2CN(c3ccc(F)cc3C(F)(F)F)C[C@@H]21)[C@@H]1C[C@@H](F)CN1` [Example 698, (4R)-4-fluoro-N-{(3aR,4S,6aS)-2-[4-fluoro-2-(trifluoromethyl)phenyl]octahydrocyclopenta[c]pyrrol-4-yl}-L-prolinamide] the IC50 was 1.52 µM. For `CN[C@@H](CC(C)C)C(=O)N[C@H]1CC[C@@H]2CN(Cc3ccccc3)C[C@@H]21` [Example 348, N^1-[(3aR,4S,6aS)-2-benzyloctahydrocyclopenta[c]pyrrol-4-yl]-N^2-methyl-L-leucinamide], the IC50 was greater than 30 µM. In the case of `O=C(CCC(F)(F)F)N[C@H]1CC[C@@H]2CN(c3cccc(C(F)(F)F)n3)C[C@@H]21` [Example 582, 4,4,4-trifluoro-N-{(3aR,4S,6aS)-2-[6-(trifluoromethyl)pyridin-2-yl]octahydrocyclopenta[c]pyrrol-4-yl}butanamide], the IC50 is reported as 0.96 µM. With `CN[C@H](C(=O)N[C@H]1CC[C@@H]2CN(c3cccc(C(F)(F)F)c3)C[C@@H]21)C(C)C` [Example 757, N^2-methyl-N-{(3aR,4S,6aS)-2-[3-(trifluoromethyl)phenyl]octahydrocyclopenta[c]pyrrol-4-yl}-L-valinamide] the IC50 was 1.13 µM. In the case of `CC[C@H](N)C(=O)N[C@H]1CC[C@@H]2CN(c3ccc(C(F)(F)F)cc3)C[C@@H]21` [Example 755, (2S)-2-amino-N-{(3aR,4S,6aS)-2-[4-(trifluoromethyl)phenyl]octahydrocyclopenta[c]pyrrol-4-yl}butanamide], the IC50 is reported as greater than 3 µM. With `O=C(N[C@H]1CC[C@@H]2CN(c3ccc(C(F)(F)F)cc3)C[C@@H]21)[C@@H]1C[C@@H](F)CN1` [Example 781, (4R)-4-fluoro-N-{(3aR,4S,6aS)-2-[4-(trifluoromethyl)phenyl]octahydrocyclopenta[c]pyrrol-4-yl}-L-prolinamide] the IC50 was 8.26 µM. `CCC[C@H](NC)C(=O)N[C@@H]1CC[C@H]2CN(Cc3ccccc3)C[C@H]21` [Example 352, N^1-[(3aS,4R,6aR)-2-benzyloctahydrocyclopenta[c]pyrrol-4-yl]-N^2-methyl-L-norvalinamide] showed an IC50 greater than 30 µM. With `CN[C@@H](CC(C)C)C(=O)N[C@H]1CC[C@@H]2CN(Cc3ccc(F)cc3)C[C@@H]21` [Example 381, N^1-[(3aR,4S,6aS)-2-(4-fluorobenzyl)octahydrocyclopenta[c]pyrrol-4-yl]-N^2-methyl-L-leucinamide] the IC50 was greater than 30 µM. Compound `N[C@@H](CC1CC1)C(=O)N[C@H]1CC[C@@H]2CN(c3ccc(OC(F)(F)F)cc3)C[C@@H]21` [Example 776, 3-cyclopropyl-N-{(3aR,4S,6aS)-2-[4-(trifluoromethoxy)phenyl]octahydrocyclopenta[c]pyrrol-4-yl}-L-alaninamide] has an IC50 of 2.53 µM. Compound `CCC[C@H](NCC(C)(C)C)C(=O)N[C@@H]1CC[C@H]2CN(S(=O)(=O)c3ccc(C(F)(F)F)cc3)C[C@H]21` [Example 260, N^2-neopentyl-N^1-((3aS,4R,6aR)-2-{[4-(trifluoromethyl)phenyl]sulfonyl}octahydrocyclopenta[c]pyrrol-4-yl)-L-norvalinamide] has an IC50 of 1.11 µM.

Same assay, conditions: IC50 (μM) or percent inhibition (* indicates 3 minute incubation, otherwise 60 minute), IC50; 3 minute pre-incubation (*); IMR32 cells, 80 mM KCl depolarization
With `O=C(N[C@@H]1CC[C@H]2CN(Cc3ccccc3)C[C@H]21)C(c1ccccc1)C1CCCCC1` (relative stereo) [Example 4, N-[(3aS*,4R*,6aR*)-2-benzyloctahydrocyclopenta[c]pyrrol-4-yl]-2-cyclohexyl-2-phenylacetamide] the IC50 was 3.5 µM.

Same assay, conditions: read-out: IC50 (μM) or percent inhibition (* indicates 3 minute incubation, otherwise 60 minute); IC50; 60 minute pre-incubation with compound; IMR32 cells, 80 mM KCl depolarization
`CC(C)C[C@@H](C(=O)N[C@@H]1CC[C@H]2CN(Cc3cccc(C(F)(F)F)c3)C[C@H]21)N(C)S(C)(=O)=O` [Example 169, N^2-methyl-N^2-(methylsulfonyl)-N^1-{(3aS,4R,6aR)-2-[3-(trifluoromethyl)benzyl]octahydrocyclopenta[c]pyrrol-4-yl}-L-leucinamide] gave an IC50 of 0.92 µM. Compound `CN(C(=O)OC(C)(C)C)[C@@H](CC(C)(C)C)C(=O)N(CC1CC1)[C@H]1CC[C@@H]2CN(S(=O)(=O)c3ccc(C(F)(F)F)cc3)C[C@@H]21` [Example 298] has an IC50 of 8.99 µM. `O=C(N[C@H]1CC[C@@H]2CN(S(=O)(=O)c3cccc(C(F)(F)F)c3)C[C@@H]21)[C@@H]1Cc2ccccc2CN1` [Example 391, (3S)-N-((3aR,4S,6aS)-2-{[3-(trifluoromethyl)phenyl]sulfonyl}octahydrocyclopenta[c]pyrrol-4-yl)-1,2,3,4-tetrahydroisoquinoline-3-carboxamide] showed an IC50 of 1.45 µM. With `CC(C)C(C(=O)N[C@H]1CC[C@@H]2CN(Cc3cccc(F)c3)C[C@@H]21)c1ccccc1` (stereo partly drawn) [Example 87, N-[(3aR,4S,6aS)-2-(3-fluorobenzyl)octahydrocyclopenta[c]pyrrol-4-yl]-3-methyl-2-phenylbutanamide] the IC50 was 3.14 µM. `CN[C@@H](CC(C)C)C(=O)N[C@H]1CC[C@@H]2CN(Cc3ccc(C(F)(F)F)cc3)C[C@@H]21` [Example 380, N^2-methyl-N^1-{(3aR,4S,6aS)-2-[4-(trifluoromethyl)benzyl]octahydrocyclopenta[c]pyrrol-4-yl}-L-leucinamide] gave an IC50 of 9.71 µM. `O=C(N[C@H]1CC[C@H]2CN(Cc3cccnc3)C[C@H]21)C(C1CCCCC1)C1CCCCC1` [Example 73, 2,2-dicyclohexyl-N-[(3aS,4S,6aR)-2-(pyridin-3-ylmethyl)octahydrocyclopenta[c]pyrrol-4-yl]acetamide] showed an IC50 of 3.26 µM. `CC(C)[C@@H](CC(=O)N[C@@H]1CC[C@H]2CN(S(=O)(=O)c3cccc(C(F)(F)F)c3)C[C@H]21)NC(=O)OC(C)(C)C` [Example 267, tert-butyl(1R)-1-isopropyl-3-oxo-3-[((3aS,4R,6aR)-2-{[3-(trifluoromethyl)phenyl]sulfonyl}octahydrocyclopenta[c]pyrrol-4-yl)amino]propylcarbamate] was tested, and the IC50 was 14.1 µM. `CC(C)C(C(=O)N[C@H]1CC[C@@H]2CN(CCCC(c3ccc(F)cc3)c3ccc(F)cc3)C[C@@H]21)c1ccccc1` (stereo partly drawn) [Example 118, N-{(3aR,4S,6aS)-2-[4,4-bis(4-fluorophenyl)butyl]octahydrocyclopenta[c]pyrrol-4-yl}-3-methyl-2-phenylbutanamide] showed an IC50 of 1.04 µM. For `O=C(N[C@H]1CC[C@@H]2CN(Cc3ccccc3)C[C@@H]21)C(c1ccccc1)C1CCCC1` (stereo partly drawn) [Example 34, N-[(3aR,4S,6aS)-2-benzyloctahydrocyclopenta[c]pyrrol-4-yl]-2-cyclopentyl-2-phenylacetamide], the IC50 was 1.51 µM. Work on `CC(C)C[C@H](NC(=O)C(C)(C)C)C(=O)N[C@@H]1CC[C@H]2CN(Cc3cccc(C(F)(F)F)c3)C[C@H]21` [Example 177, N^2-(2,2-dimethylpropanoyl)-N^1-{(3aS,4R,6aR)-2-[3-(trifluoromethyl)benzyl]octahydrocyclopenta[c]pyrrol-4-yl}-L-leucinamide] yielded an IC50 of 2.64 µM. For `CC(C)(C)OC(=O)N1CCCC[C@H]1C(=O)N[C@@H]1CC[C@H]2CN(Cc3ccccc3)C[C@H]21` [Example 231, tert-butyl(2S)-2-({[(3aS,4R,6aR)-2-benzyloctahydrocyclopenta[c]pyrrol-4-yl]amino}carbonyl)piperidine-1-carboxylate], the IC50 was 6.13 µM.
